# Test results as given in patent US9062061B2, “Compound having PARP inhibitory activity” (SANTEN PHARMACEUTICAL CO., LTD., priority 2011, dated 2015).
# Molecular target: T1, human recombinant PARP1 (Homo sapiens, UniProt P09874)
# T1 construct: purchased Trevigen 4677-096-K
# Test: PARP inhibitory activity measurement test (Universal Colorimetric PARP Assay kit, Trevigen)
# Assay type: biochemical
# Settings: compound concentration: 10 μM, read-out: PARP1 inhibition rate (%)
# Experimental: For evaluating PARP inhibitory activity of the present compound, inhibitory activity of each test compound against human recombinant PARP 1 was measured using Universal Colorimetric PARP Assay kit with Histone-Coated Strip Wells (Cat No.: 4677-096-K) available from Trevigen. The test was conducted according to the procedure in the instruction attached to this kit. The concrete operation will be described below.
# After dissolving the test compound in dimethyl sulfoxide, the solution was diluted with a PARP buffer attached to the kit to prepare a 50 μM test compound solution.
# In each well of a histone-coated 96-well plate, 10 μL of the test compound solution (50 μM), 15 μL of human recombinant PARP1 (33.3 Unit/mL) and 25 μL of PARP cocktail (containing activated DNA and biotinated NAD) were added, and incubated at room temperature for 1 hour (final reaction amount: 50 μL). Each well was washed twice with 200 μL of 0.1% Triton-X-containing Dulbecco's phosphate buffer, and further washed twice with 200 μL of Dulbecco's phosphate buffer, and then 50 μL of Strep-HRP was added, followed by incubation at room temperature for 1 hour. Each well was washed twice with 200 μL of 0.1% Triton-X-containing Dulbecco's phosphate buffer, and further washed twice with 200 μL of Dulbecco's phosphate buffer, and then 50 μL of TACS-Sapphire coloriometric substrate was added, followed by incubation at room temperature for 15 minutes. After stopping the reaction by adding 50 μL of 0.2 M HCl, absorbance at 450 nm (Abs 450) was measured by a microplate reader. The number of examples in each group was 1 to 2.
# Using a well into which dimethyl sulfoxide and a PARP buffer were added in place of the test compound solution and human recombinant PARP1, the above operation was conducted as a negative control.
# Using a well into which a PARP buffer containing dimethyl sulfoxide was added in place of the test compound solution, the above operation was conducted as a positive control.
# PARP1 inhibition rate (%) was calculated according to the following Formula 1. PARP1 inhibition rate(%)=(AbsB−AbsX)/(AbsB−AbsA)×100 [Formula 1]
# AbsA: absorbance of negative control (Abs 450)
# AbsB: absorbance of positive control (Abs 450)
# AbsX: absorbance of test compound-treated group (Abs 450)
# T1 sequence (P09874 whole entry): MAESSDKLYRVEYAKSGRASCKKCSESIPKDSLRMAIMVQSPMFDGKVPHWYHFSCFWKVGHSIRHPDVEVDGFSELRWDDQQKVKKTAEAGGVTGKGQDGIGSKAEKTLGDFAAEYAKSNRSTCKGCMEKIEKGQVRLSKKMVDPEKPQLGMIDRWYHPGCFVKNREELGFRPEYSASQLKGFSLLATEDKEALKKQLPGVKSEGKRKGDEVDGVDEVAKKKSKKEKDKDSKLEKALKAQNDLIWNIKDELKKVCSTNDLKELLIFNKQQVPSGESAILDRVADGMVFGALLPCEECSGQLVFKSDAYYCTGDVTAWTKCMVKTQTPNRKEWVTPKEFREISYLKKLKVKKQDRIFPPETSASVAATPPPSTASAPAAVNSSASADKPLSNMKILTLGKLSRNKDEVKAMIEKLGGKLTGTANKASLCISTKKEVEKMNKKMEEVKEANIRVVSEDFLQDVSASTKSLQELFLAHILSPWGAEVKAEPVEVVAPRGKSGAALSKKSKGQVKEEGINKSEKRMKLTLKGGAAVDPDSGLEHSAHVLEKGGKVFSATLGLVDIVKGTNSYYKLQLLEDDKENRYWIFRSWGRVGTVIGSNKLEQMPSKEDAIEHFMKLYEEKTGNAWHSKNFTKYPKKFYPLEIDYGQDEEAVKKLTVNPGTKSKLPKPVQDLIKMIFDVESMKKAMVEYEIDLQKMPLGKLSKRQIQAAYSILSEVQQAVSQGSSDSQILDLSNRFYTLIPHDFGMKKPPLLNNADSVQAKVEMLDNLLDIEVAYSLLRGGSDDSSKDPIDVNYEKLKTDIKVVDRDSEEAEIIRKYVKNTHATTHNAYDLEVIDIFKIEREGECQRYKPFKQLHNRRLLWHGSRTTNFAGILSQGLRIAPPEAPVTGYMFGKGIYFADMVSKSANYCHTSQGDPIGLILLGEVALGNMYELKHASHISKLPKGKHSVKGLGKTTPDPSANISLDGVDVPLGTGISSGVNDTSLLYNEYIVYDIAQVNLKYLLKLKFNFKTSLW
row,Compound,inhibition at 10 µM
1,"O=c1[nH]c2cc(CN3CCN(c4cccc(F)c4)CC3)cn2c2ccccc12 [Compound 2-15, 2-[4-(3-Fluorophenyl)piperazin-1-ylmethyl]pyrrolo[1,2-a]quinazolin-5(4H)-one]",98%
2,"O=c1[nH]c2cc(CN3CCN(c4cccnc4)CC3)cn2c2ccccc12 [Compound 2-18, 2-[4-(Pyridine-3-yl)piperazin-1-ylmethyl]pyrrolo[1,2-a]quinazolin-5(4H)-one]",95%
3,"CN(CCCc1ccccc1)Cc1cc2[nH]c(=O)c3ccccc3n2c1 [Compound 2-19, 2-[N-Methyl-N-(3-phenylpropyl)aminomethyl]pyrrolo[1,2-a]quinazolin-5(4H)-one]",93%
4,"O=c1[nH]c2cc(CN3CCN(c4ccc(Br)cc4)CC3)cn2c2ccccc12 [Compound 2-20, 2-[4-(4-Bromophenyl)piperazin-1-ylmethyl]pyrrolo[1,2-a]quinazolin-5(4H)-one]",90%
5,"O=c1[nH]c2cc(CN3CCc4ccccc4C3)cn2c2ccccc12 [Compound 2-21, 2-(1,2,3,4-Tetrahydroisoquinolin-2(1H)-ylmethyl)pyrrolo[1,2-a]quinazolin-5(4H)-one]",65%
6,"CN(C)C1CCN(Cc2cc3[nH]c(=O)c4ccccc4n3c2)CC1 [Compound 2-22, 2-(4-Dimethylaminopiperidin-1-ylmethyl)pyrrolo[1,2-a]quinazolin-5(4H)-one]",97%
7,"O=c1[nH]c2cc(CN3CCN(c4ccncc4)CC3)cn2c2ccccc12 [Compound 2-23, 2-[4-(Pyridin-4-yl)piperazin-1-ylmethyl]pyrrolo[1,2-a]quinazolin-5(4H)-one]",100%
8,"CC1CN(c2ccc(F)cc2)CCN1Cc1cc2[nH]c(=O)c3ccccc3n2c1 (centres unmarked) [Compound 2-24, 2-[4-(4-Fluorophenyl)-2-methylpiperazin-1-ylmethyl]pyrrolo[1,2-a]quinazolin-5(4H)-one]",99%
9,"COc1ccccc1N1CCN(Cc2cc3[nH]c(=O)c4ccccc4n3c2)CC1 [Compound 2-25, 2-[4-(2-Methoxyphenyl)piperazin-1-ylmethyl]pyrrolo[1,2-a]quinazolin-5(4H)-one]",100%
10,"COc1cccc(N2CCN(Cc3cc4[nH]c(=O)c5ccccc5n4c3)CC2)c1 [Compound 2-26, 2-[4-(3-Methoxyphenyl)piperazin-1-ylmethyl]pyrrolo[1,2-a]quinazolin-5(4H)-one]",78%
11,"O=c1[nH]c2cc(CN3CCN(C4CCCCC4)CC3)cn2c2ccccc12 [Compound 2-27, 2-(4-Cyclohexylpiperazin-1-ylmethyl)pyrrolo[1,2-a]quinazolin-5(4H)-one]",99%
12,"O=c1[nH]c2cc(CN3CCN(CC4CC4)CC3)cn2c2ccccc12 [Compound 2-28, 2-(4-Cyclopropylmethylpiperazin-1-ylmethyl)pyrrolo[1,2-a]quinazolin-5(4H)-one]",99%
13,"O=c1[nH]c2cc(CN3CCN(c4ccc(C(F)(F)F)cc4)CC3)cn2c2ccccc12 [Compound 2-29, 2-[4-(4-Trifluoromethylphenyl)piperazin-1-ylmethyl]pyrrolo[1,2-a]quinazolin-5(4H)-one]",40%
14,"O=c1[nH]c2cc(CN3CCCC(c4ccccc4)C3)cn2c2ccccc12 (centres unmarked) [Compound 2-31, 2-(3-Phenylpiperidin-1-ylmethyl)pyrrolo[1,2-a]quinazolin-5(4H)-one]",66%
15,"Cc1cccc(N2CCN(Cc3cc4[nH]c(=O)c5ccccc5n4c3)CC2)c1 [Compound 2-32, 2-[4-(3-Methylphenyl)piperazin-1-ylmethyl]pyrrolo[1,2-a]quinazolin-5(4H)-one]",97%
16,"O=c1[nH]c2cc(CN3CCC(N4CCCCC4)CC3)cn2c2ccccc12 [Compound 2-33, 2-[4-(Piperidin-1-yl)piperidin-1-ylmethyl]pyrrolo[1,2-a]quinazolin-5(4H)-one]",96%
17,"O=c1[nH]c2cc(CN3CCCC3)cn2c2ccccc12 [Compound 2-34, 2-(Pyrrolidin-1-ylmethyl)pyrrolo[1,2-a]quinazolin-5(4H)-one]",96%
